# “And” between values parts separate entries of the source, which are not always exact repeats. Equal values may be shown once. Read-outs that look alike come from different tables or passages of the source.
# Experiments:
# [1] = system: K. pneumoniae ATCC 43816; experiment: K. pneumoniae mouse lung infection (lung CFU); format: in vivo, Klebsiella pneumoniae; settings: for reduction in lung bacterial load compared to untreated mice: at 24 h
# Text: Mice experiments complied with national, institutional and European regulations and ethical guidelines, were in accordance with ARRIVE guidelines 2.0 and were approved by the Institutional Animal Care and Use Committee (animal facility agreement D59-350009, Institut Pasteur de Lille, protocol reference: APAFIS#25953, 2020060916081461_v2). Six to eight weeks old female C57BL/6JRj mice were purchased from Janvier Laboratories (Saint Berthevin, France), allocated into experimental groups in a random fashion and maintained in individually ventilated cages (Innorack® IVC Mouse 3.5) and handled in a vertical laminar flow biosafety cabinet (Class II Biohazard, Tecniplast). All infections were performed in an animal biosafety level 2 facility.
# Inoculum was prepared as follows. Tryptic Soy broth was inoculated with K. pneumoniae from a frozen stock and grown overnight at 37 °C without shaking. 1 mL of this overnight bacterial culture was transferred to a warm fresh Tryptic Soy broth and grown at 37 °C until it reached the mid-log. Cells were pelleted, washed with PBS and resuspended to the appropriate concentration.
# 22 h post-infection, mice were treated with BDM91288 (5) (30 mg/kg, 200 µL, formulated in 10% hydroxypropyl-beta-cyclodextrine (Kleptose HP; Roquette) at 3 mg/mL) by intragastric route. […] At 4 h or 24 h post antibiotic treatment, mice were euthanized by cervical dislocation. Lungs were collected in 1 mL of PBS, homogenized with a T-25 digital Ultraturrax® (IKA). CFU counts were determined by plating serial dilutions onto Tryptic Soy agar plate.
# [2] = Pharmacokinetics in mice, single oral dose (plasma, whole lung); settings: for concentration at 0.5 h / concentration at 1 h / concentration at 1.5 h / concentration at 2 h / concentration at 4 h / concentration at 6 h / concentration at 24 h: mice
# Procedure: BDM91288 (5) was dissolved in 10% kleptose hydroxypropyl-β-cyclodextrin in distilled water and administered per os at 30 mg/kg to female CD-1 mice (~25–30 g). The concentration of BDM91288 (5) in plasma and lungs was measured at different time points after administration of a single dose of compounds. Three mice per time point were anesthetized with isoflurane and blood taken from the retro-orbital sinus using sampling heparinated tubes (4 °C). The blood samples were centrifuged (3500 rpm, 20 min, 4 °C) for plasma separation and stored at −80 °C before BDM91288 measurement. After rodent sacrifice by cervical dislocation, lung was washed in sodium chloride solution (0.9%), frozen in liquid nitrogen and stored at −80 °C.
# Plasma and BAL fluid samples were thawed on ice. Aliquots were precipitated with ice-cold MeCN/MeOH 50:50 (1 to 10 ratio) containing propranolol (100 nM) as internal standard. The samples were vigorously mixed with a vortex and centrifuged for 10 min at 12,000 rpm, 4 °C, and the supernatants were transferred into Matrix tubes for LC-MS/MS analysis. Lungs were homogenized in ultrapure water, in a 1 to 4 ratio (W/V) (using a Tissue Lyzer II from Qiagen); then compounds were extracted with a MeOH/MeCN 50:50 mixture in a 1 to 1 ratio (V/V). After centrifugation (12,000 rpm, 10 min, 4 °C) of the homogenate samples, supernatants were diluted (1 to 10) with a MeOH/MeCN 50:50 mixture containing propranolol (100 nM) as internal standard and transferred into Matrix tubes for LC-MS/MS analysis. Spiked standard solutions were prepared the same way in control matrix.
# Samples were analysed using a UPLC system Acquity I Class (Waters), combined with a triple quadrupole mass spectrometer Xevo TQD (Waters). The column, placed at 40 °C, was an Acquity BEH C18 50 × 2.1 mm, 1.7 μm column (Waters) and the following mobile phases were used: H2O 0.1% HCOOH as solvent A and MeCN 0.1% HCOOH as solvent B at a flow rate of 0.6 mL/min. The gradient was initiated at 2% B, maintained for 10 s then increased linearly to 98% B in 1′50 and maintained at 98% B for 30 s before returning to initial conditions. […] Data analysis and processing were performed using MassLynx software (Waters).
# [3] = Plasma protein binding by equilibrium dialysis; format: in vitro ADME; settings: pH 7.4, mouse plasma, read-out: plasma protein binding, Funbound
# Procedure: In vitro plasma protein binding of BDM91288 (5) was measured in mouse plasma using equilibrium dialysis. The RED inserts were placed in a 48-well Teflon Plate (Pierce). Samples were prepared by mixing test compound with plasma at the appropriate concentration to reach a final drug concentration of 10 μM. Triplicate aliquots of plasma containing BDM91288 (5) at a concentration of 10 μM were pipetted to plasma side (red) of the insert and PBS pH 7.4 was placed into the receiver side (white) of the insert. The plate was covered with sealing tape and incubated in a 37 °C orbital shaker water bath for 4 h. Following incubation, samples were prepared in a mixed matrix configuration. Aliquots of samples were pipetted into 96-well plates and precipitation buffer was added to precipitate the proteins. Samples were mixed by vortexing, then centrifuged for 10 min at 12,000 rpm at 4 °C. The supernatant was assayed directly by LC-MS/MS. The following equation was used to calculate the percentage of bound drug fraction (% PPB) using this equilibrium dialysis method: % unbound = ([Buffer chamber]/[Plasma chamber) × 100.
# [4] = system: E. coli BW25113; experiment: PyrPip boosting of pyridomycin activity in E. coli (resazurin reduction); format: cell-based, Escherichia coli; settings: read-out: PyrPip antibiotic boosting activity EC90; E. coli BW25113 in the presence of 8 μg/mL pyridomycin, resazurin reduction; mean ± SEM
# Text: With the aim of developing a PyrPip for in vivo efficacy studies in mice, it was important to optimise the metabolic stability of these efflux pump inhibitors to guarantee sufficient exposure in mice needed for antibiotic boosting. […] To identify metabolically stabilised PyrPips while maintaining AcrB inhibition, it was therefore decided to explore modifications to the quinoline core as well as the introduction of substituents at position 6 of the quinoline ring.
# [5] = female, CD-1, mouse, in vivo, po, 30 mg/kg
# [6] = female, CD-1, mouse, in vivo, po, 30 mg/kg, Caverage plasma, single 30 mg/kg p.o.
# [7] = female, CD-1, mouse, in vivo, po, 30 mg/kg, Caverage whole lung, single 30 mg/kg p.o.
compound,measurement,setting,value
C[C@H]1COc2c(N3CCN(C)CC3)c(F)cc3c(=O)c(C(=O)O)cn1c23 [Levofloxacin],"CFU counts, lung, single animals","[1]; 4h post-treatment, levofloxacin 10mg/kg",2830 CFU and 567 CFU and 1330 CFU and 3170 CFU and 3670 CFU and 1830 CFU and 4670 CFU and 7670 CFU and 717 CFU and 3330 CFU and 2170 CFU and 833 CFU and 2000 CFU and 500 CFU and 450 CFU and 150 CFU
same,"CFU counts, lung, single animals","[1]; 4h post-treatment, levofloxacin 50mg/kg",200 CFU and 50 CFU and 267 CFU and 16.7 CFU and 117 CFU and 350 CFU and 583 CFU and 450 CFU and 833 CFU and 1000 CFU and 133 CFU and 667 CFU and 1330 CFU and 1500 CFU and 1170 CFU and 367 CFU
same,"CFU counts, lung, single animals","[1]; 24h post-treatment, levofloxacin 10mg/kg",117 CFU and 83.3 CFU and 15300 CFU and 26700 CFU and 7500 CFU and 1000 CFU and 6330 CFU and 9170 CFU
same,"CFU counts, lung, single animals","[1]; 24h post-treatment, levofloxacin 50mg/kg",16.7 CFU and 167 CFU and 66.7 CFU and 50 CFU and 100 CFU and 83.3 CFU
same,reduction in lung bacterial load compared to untreated mice,[1]; single dose 10 mg/kg i.p.,3.2 log
same,reduction in lung bacterial load compared to untreated mice,[1]; single dose 50 mg/kg i.p.,5.9 log
Clc1cc2cc(N3CCNCC3)ccc2nc1N1CCNCC1 [compound 5],Tmax,[2]; [5],4 h
same,half-life,[2]; [5],> 600 min
same,AUC(0-t),"[2]; female, CD-1, mouse, in vivo, po, 30 mg/kg, AUC(0-24h) plasma, single 30 mg/kg p.o., female CD-1 mice",27 µM·h
same,AUC(0-t),"[2]; female, CD-1, mouse, in vivo, po, 30 mg/kg, AUC(0-24h) whole lung, single 30 mg/kg p.o., female CD-1 mice",3880 µM·h
same,concentration at 0.5 h,[2]; [6],800 nM
same,concentration at 1 h,[2]; [6],1600 nM
same,concentration at 1.5 h,[2]; [6],1300 nM
same,concentration at 2 h,[2]; [6],1800 nM
same,concentration at 4 h,[2]; [6],2000 nM
same,concentration at 6 h,[2]; [6],1400 nM
same,concentration at 24 h,[2]; [6],500 nM
same,concentration at 0.5 h,[2]; [7],35.4 µM and 11700 ng/g
same,concentration at 1 h,[2]; [7],93.5 µM and 31000 ng/g
same,concentration at 1.5 h,[2]; [7],102 µM and 33800 ng/g
same,concentration at 2 h,[2]; [7],160 µM and 53100 ng/g
same,concentration at 4 h,[2]; [7],225 µM and 74700 ng/g
same,concentration at 6 h,[2]; [7],168 µM and 55900 ng/g
same,concentration at 24 h,[2]; [7],159 µM and 52800 ng/g
same,Cmax,"[2]; female, CD-1, mouse, in vivo, po, 30 mg/kg, Cmax plasma, single 30 mg/kg p.o., female CD-1 mice",2 µM
same,Cmax,"[2]; female, CD-1, mouse, in vivo, po, 30 mg/kg, Cmax whole lung, single 30 mg/kg p.o., female CD-1 mice",225 µM and 75000 ng/g
same,Cmax,"[2]; read-out: Cmax whole lung, single 30 mg/kg p.o., female CD-1 mice, listed as BDM91288 (5)",225 µM
same,"fraction unbound at 4 h, 10 μM",[3],0.54
same,EC90,[4],3.3 ± 1.7 µM
same,"CFU counts, lung, single animals","[1]; 4h post-treatment, BDM91288 + levofloxacin 10mg/kg",250 CFU and 1500 CFU and 667 CFU and 267 CFU and 483 CFU and 1830 CFU and 1670 CFU and 500 CFU and 1170 CFU and 517 CFU and 833 CFU and 383 CFU and 650 CFU and 550 CFU and 450 CFU and 2670 CFU and 3170 CFU and 1000 CFU and 583 CFU
same,"CFU counts, lung, single animals","[1]; 4h post-treatment, BDM91288 alone",433000 CFU and 400000 CFU and 533000 CFU and 817000 CFU and 13800000 CFU and 2670000 CFU and 5170000 CFU and 2330000 CFU and 550000 CFU and 700000 CFU and 1830000 CFU and 250000 CFU and 1030000 CFU and 600000 CFU and 1120000 CFU and 317000 CFU and 1380000 CFU and 167000 CFU and 2500000 CFU and 450000 CFU and 267000 CFU and 567000 CFU
same,"CFU counts, lung, single animals","[1]; 24h post-treatment, BDM91288 + levofloxacin 10mg/kg",16.7 CFU and 1500 CFU and 117 CFU and 200 CFU and 850 CFU and 517 CFU and 350 CFU and 683 CFU and 283 CFU
same,"CFU counts, lung, single animals","[1]; 24h post-treatment, BDM91288 alone",98300 CFU and 4500000 CFU and 26700000 CFU and 31700000 CFU and 28300000 CFU and 1650000 CFU and 18300000 CFU and 13300000 CFU and 10000000 CFU and 12300000 CFU and 6170000 CFU and 7000000 CFU and 20000000 CFU and 483000 CFU and 16700000 CFU
same,impact on the K. pneumoniae bacterial load in the lungs,"[1]; single dose 30 mg/kg p.o., alone",no impact

# — publication PMC10897476, “Pyridylpiperazine efflux pump inhibitor boosts in vivo antibiotic efficacy against K. pneumoniae” (EMBO Molecular Medicine, 2023)
